# Experimental data reported in US20250353848A1, “HETEROCYCLIC PAD4 INHIBITORS” (Celgene Corporation, priority 2022, published 2025).
# How the values were obtained:
# hPAD4 enzyme [1] = target: T1, hPAD4 enzyme (Homo sapiens, UniProt Q9UM07); experiment: RFMS Assay 1 (rapid-fire mass spectrum PAD4 inhibition assay, BAEE substrate); assay type: biochemical; details: 5 nM hPAD4 enzyme, 250 μM BAEE, 30 mins compound and enzyme preincubation at 37° C., 90 min enzyme/substrate reaction
# Method in brief: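 Human PAD4 (5 nM) preincubated 30 min at 37 °C with compound (top 50 μM, 0.5% DMSO), then 250 μM BAEE for 90 min at 37 °C in pH 7.5 HEPES with 50 μM calcium, 5 μM TPEN, 1 mM DTT. Product derivatized with phenyl glyoxal; citrulline product quantified by RapidFire MS/MS MRM, normalized to internal standard.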
# hPAD4 enzyme [2] = target: T1, hPAD4 enzyme; experiment: RFMS Assay 2 (rapid-fire mass spectrum PAD4 inhibition assay, peptide substrate); assay type: biochemical; details: 35 nM recombinant human PAD4, substrate TSTGGRQGSHH, room temperature for 30 minutes; read-out: human PAD4 (hPAD4) IC50, RFMS Assay 2
# Method in brief: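 Recombinant human PAD4 (35 nM) reacted 30 min at room temperature with 500 µM peptide TSTGGRQGSHH in pH 7.4 HEPES, 200 mM NaCl, 2 mM CaCl2, 5 mM DTT, 1.2% DMSO. Quenched with formic acid; substrate and citrullinated product quantified by RapidFire MRM mass spectrometry.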
# T1 sequence (Q9UM07 whole entry): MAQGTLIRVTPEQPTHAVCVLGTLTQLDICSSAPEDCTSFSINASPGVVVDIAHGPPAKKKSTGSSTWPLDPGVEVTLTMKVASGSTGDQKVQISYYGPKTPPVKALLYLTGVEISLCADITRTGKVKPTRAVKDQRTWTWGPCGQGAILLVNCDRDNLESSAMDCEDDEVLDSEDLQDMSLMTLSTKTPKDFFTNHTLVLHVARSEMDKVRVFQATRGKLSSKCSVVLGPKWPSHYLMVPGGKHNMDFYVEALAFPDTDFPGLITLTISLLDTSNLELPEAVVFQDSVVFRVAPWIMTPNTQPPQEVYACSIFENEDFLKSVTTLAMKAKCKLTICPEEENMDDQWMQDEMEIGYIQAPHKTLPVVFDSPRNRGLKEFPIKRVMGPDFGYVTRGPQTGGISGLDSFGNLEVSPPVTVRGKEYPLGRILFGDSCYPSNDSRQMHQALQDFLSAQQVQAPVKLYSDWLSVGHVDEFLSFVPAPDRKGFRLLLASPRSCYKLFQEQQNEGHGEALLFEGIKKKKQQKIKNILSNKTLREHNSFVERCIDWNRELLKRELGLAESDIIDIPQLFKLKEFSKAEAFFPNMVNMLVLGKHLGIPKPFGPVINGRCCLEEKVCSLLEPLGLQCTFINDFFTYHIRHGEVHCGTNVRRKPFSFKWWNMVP
IC50 (hPAD4 enzyme [1]),IC50 (hPAD4 enzyme [2]),SMILES
≤ 10 nM,11 to 100 nM,"C[C@@H](COc1cccc2cc(-c3nc4cc5c(nc4n3C)CCN(C[C@H](N)CF)C5=O)n(CC3CC3)c12)n1cnc(F)c1 [Example 86, 7-((S)-2-amino-3-fluoropropyl)-2-(1-(cyclopropylmethyl)-7-((S)-2-(4-fluoro-1H-imidazol-1-yl)propoxy)-1H-indol-2-yl)-3-methyl-3,5,6,7-tetrahydro-8H-imidazo[4,5-b][1,6]naphthyridin-8-one]"
≤ 10 nM,101 to 500 nM,"Cn1c(-c2cc3cccc(OCC(C)(C)n4ccnc4)c3n2CC2CC2)nc2cc3c(nc21)CCN(C[C@H](N)CF)C3=O [Example 96, (S)-2-(7-(2-(1H-imidazol-1-yl)-2-methylpropoxy)-1-(cyclopropylmethyl)-1H-indol-2-yl)-7-(2-amino-3-fluoropropyl)-3-methyl-3,5,6,7-tetrahydro-8H-imidazo[4,5-b][1,6]naphthyridin-8-one]"

# The next lines start with the molecule.
SMILES,IC50 (hPAD4 enzyme [1]),IC50 (hPAD4 enzyme [2])
"Cn1c(-c2cc3ccnc(OCCn4ccnc4)c3n2CC2CC2)nc2cc3c(nc21)CCN(C[C@H](N)CF)C3=O [Example 84, (S)-2-(7-(2-(1H-imidazol-1-yl)ethoxy)-1-(cyclopropylmethyl)-1H-pyrrolo[2,3-c]pyridin-2-yl)-7-(2-amino-3-fluoropropyl)-3-methyl-3,5,6,7-tetrahydro-8H-imidazo[4,5-b][1,6]naphthyridin-8-one]",≤ 10 nM,11 to 100 nM
"C[C@H](COc1cccc2cc(-c3nc4cc5c(nc4n3C)CCN(C[C@H](N)CF)C5=O)n(CC3CC3)c12)n1cnc(F)c1 [Example 85, 7-((S)-2-amino-3-fluoropropyl)-2-(1-(cyclopropylmethyl)-7-((R)-2-(4-fluoro-1H-imidazol-1-yl)propoxy)-1H-indol-2-yl)-3-methyl-3,5,6,7-tetrahydro-8H-imidazo[4,5-b][1,6]naphthyridin-8-one]",≤ 10 nM,11 to 100 nM
"[2H]C([2H])(Oc1cccc2cc(-c3nc4cc5c(nc4n3C)CCN(C[C@H](N)CF)C5=O)n(CC3CC3)c12)C([2H])([2H])n1ccnc1 [Example 95, (S)-2-(7-(2-(1H-imidazol-1-yl)ethoxy-1,1,2,2-d4)-1-(cyclopropylmethyl)-1H-indol-2-yl)-7-(2-amino-3-fluoropropyl)-3-methyl-3,5,6,7-tetrahydro-8H-imidazo[4,5-b][1,6]naphthyridin-8-one]",≤ 10 nM,11 to 100 nM
